# Reference: patent US20140094456A1, “ANTI-FIBROTIC PYRIDINONES” (InterMune, Inc., priority 2012, published 2014)
# System: Fibroblasts (primary human lung and dermal, HFL-1, 3T3 etc)
# Test: Cell proliferation assay: inhibitory effect on cell proliferation (BrdU incorporation) in fibroblasts
# Type: cell-based
# Conditions: HFL1, 50% inhibition of stimulant (LPA, TGFb, serum etc) induced increase of BrdU incorporation in fibroblasts
# Protocol: Assay of Inhibitory Effect on Cell Proliferation (BrdU Incorporation)
# Fibroblasts (primary human lung and dermal, HFL-1, 3T3 etc) were plated on a 96-well plate and serum starved for 24-48 hours. The media were then exchanged for media containing stimulants (LPA, TGFb, serum etc) and cultured further for 16-24 hours before BrdU addition. After culturing for another 8 hours, cells were washed with PBS and the amount of BrdU incorporated into the cells was assayed by absorbance at 450 nm using the Cell proliferation ELISA system (RPN250, Amersham LIFE SCIENCE). The difference between the amount of BrdU incorporated in the stimulant-added well and the amount of BrdU incorporated in the well containing no stimulant represented the amount of BrdU incorporation accelerated by stimulant. The increase of BrdU incorporation without the addition of test compounds was set as 100% and the concentration of compound with 50% inhibition in the increase of BrdU incorporation (IC50 value) was determined. The test compounds were added 0-30 min before stimulant addition.
# (§1) Compounds of some embodiments were prepared according to synthetic methods described herein and assay data obtained for IC50 for BrdU inhibition. The assay data obtained is presented in Table 3, in which A=less than 50 μM, B=greater than or equal to 50 μM and less than or equal to 200 μM; and C=greater than 200 μM.
row,Structure (SMILES),IC50
1,COCCOCCOCCOc1ccc(-n2cc(C)ccc2=O)cc1 [Compound 21],> 200 µM
2,O=c1c2c(ncn2C2CC2)c(-c2cn[nH]c2)cn1-c1ccc(OC(F)(F)F)cc1 [Compound 650],< 50 µM

# System: endothelin-1 (ET-1) production
# Test: ET-1 assay: inhibitory effect on TGF-b induced endothelin-1 production in fibroblasts (ELISA)
# Type: cell-based, human
# Conditions: Homo sapiens, Fibroblast, inhibition of stimulant (TGFb, serum, LPA etc) induced ET-1 production in fibroblasts
# Protocol: Assay of Inhibitory Effect on TGF-b Induced Endothelin-1 Production
# Fibroblasts (primary human lung and dermal, HFL-1, 3T3 etc) are seeded in 96-well plates at ˜15000 cells/well and serum starved for 0-48 hours. After media exchange, compounds serially diluted in DMSO are added to the cells. After a brief incubation of ˜30 min, stimulants (TGFb, serum, LPA etc) are added followed by further incubation for 16-48 hours. Media is then harvested and stored frozen in plate format for later endothelin-1 (ET-1) determination by ELISA. Toxicity measurements are made using the ATPlite kit (Perkin-Elmer). ET-1 is quantified using an ELISA kit (R&D Systems). The amount of ET-1 produced in the assay wells are back-calculated using the ELISA standard. The ability of a compound to inhibit ET-1 production is typically analyzed by fitting dose-response curves to a 4-parameter logistic function to obtain an EC50 value. A measure of cytotoxicity (CC50) is likewise reported from the same experiment using the ATPlite data.
# as §1, with “EC50 against ET-1.” for “IC50 for BrdU inhibition.”, “2,” for “3,”
row,Structure (SMILES),EC50
1,CC(=O)c1ccc(=O)n(-c2ccc(OC(C)C)cc2)c1 [Compound 10],> 200 µM
2,COCCOCCOCCOc1ccc(-n2cc(C)ccc2=O)cc1 [Compound 21],> 200 µM
3,COCCOCCOCCOc1cccc(-n2cc(C)ccc2=O)c1 [Compound 22],> 200 µM
4,CCOC(=O)Nc1cc(=O)n(-c2ccc(OC(F)(F)F)cc2)cc1-c1ccc(F)cc1 [Compound 114],> 200 µM
5,CCCCOC(=O)Nc1cc(=O)n(-c2ccc(OC(F)(F)F)cc2)cc1-c1cnn(C)c1 [Compound 136],50 to 200 µM
6,Cn1cc(-c2cn(-c3ccc(OC(F)(F)F)cc3)c(=O)cc2NC(=O)OCc2ccccc2)cn1 [Compound 140],50 to 200 µM
7,Cc1cc(=O)n(-c2ccc(C(F)(F)F)cc2)cc1-c1ccccc1 [Compound 170],< 50 µM
8,CN1C(=O)COc2c(-c3cnn(C)c3)cn(-c3ccc(OC(F)(F)F)cc3)c(=O)c21 [Compound 396],> 200 µM
9,COCCOc1ccc(Oc2cc(=O)n(-c3ccc(OC(F)(F)F)cc3)cc2-c2cnn(C)c2)cc1 [Compound 533],50 to 200 µM
10,O=c1c2c(ncn2C2CC2)c(-c2cn[nH]c2)cn1-c1ccc(OC(F)(F)F)cc1 [Compound 650],< 50 µM

# Same assay, conditions: inhibition of stimulant (TGFb, serum, LPA etc) induced ET-1 production in fibroblasts
row,Structure (SMILES),EC50
1,CC(C)Oc1ccc(-n2cc(-c3ccc(F)cc3)ccc2=O)cc1 [Compound 288],50 to 200 µM
